Experimental data from ChEMBL document CHEMBL1123380, “Spin trapping of superoxide and hydroxyl radicals with substituted pyrroline 1-oxides” (J Med Chem, 1986).

Legend:
[1] = Compound was evaluated for the partition coefficient in octanol/water; assay type: physicochemical
[2] = Compound was evaluated for the partition coefficient in octanol/water (1-octanol / 10 mM phosphate buffer at pH 7.4); assay type: physicochemical

| Structure (SMILES) | K [1] | K [2] |
| --- | --- | --- |
| CCCCC(C)(CCC=O)[N+](=O)[O-] (centres undefined) | 1.1 | – |
| CCCC(CCC)(CCC=O)[N+](=O)[O-] | 4.9 | – |
| O=CCCC1([N+](=O)[O-])CCCC1 | 0.8 | – |
| CC1(C)CCC=[N+]1[O-] | – | 0.02 |
